Test results reported in patent US20100004267A1, “LIQUID PREPARATION” (ASUBIO PHARMA CO., LTD., priority 2006, published 2010).
Where a name gives a salt, the structure may show the parent alone.

Assays:
[1] = Likelihood of formation of insoluble aggregate with free base among counter ions; format: physicochemical; settings: estimated from the inventors' examinations
[2] = Examination of antioxidant: storage at 60° C. (Test example 3); format: physicochemical
Procedure: In this examination, hydrochloride of the compound of formula (I) was used instead of SUN N8075. Approximately 400 mg of the hydrochloride of compound of formula (I) were precisely weighed and water was added to make the volume precisely 200 mL, which was provided as an original drug aqueous solution.
Approximately 400 mg of each antioxidant shown in Table 3 below were precisely weighed and dissolved by adding 20 mL of water. As to butylhydroxy anisole, 10.7 mg was precisely weighed and dissolved in 100 mL of water.
15 mL of each antioxidant solution was mixed with 15 mL of solution of drug substance to prepare a stock sample (in the sample, the concentration of the hydrochloride compound of formula (I) corresponds to 1 mg/mL and the concentration of antioxidant corresponds to 10 mg/mL).
After dispensing each stock sample into 15 brown glass ampules, the ampules were sealed and stored at 60° C.
As a control sample, 15 mL of solution of drug substance added with 15 mL of water were stored in the same condition.
The remaining three ampules for each sample solution were used for measurement at the start of tests.
Each prepared sample was sampled in time series. 1 mL of sample solution was precisely measured, change in appearance and solution state of the sample were observed, and then added with methanol to make the volume precisely 10 mL. For this solution, residual percentage of the hydrochloride of compound of formula (I) was calculated by HPLC method. Furthermore, the pH value of the sample solution remaining after completion of test was measured.

[3] = Butyl hydroxy anisole, at start
[4] = L-Cysteine HCl monohydrate 10 mg/mL, 1 day
[5] = L-Cysteine HCl monohydrate 10 mg/mL, 7 days
[6] = L-Cysteine HCl monohydrate 10 mg/mL, 21 days
[7] = L-Cysteine HCl monohydrate 10 mg/mL, at start
[8] = Sodium bisulfite 10 mg/mL, 1 day
[9] = Sodium bisulfite 10 mg/mL, 7 days
[10] = Sodium bisulfite 10 mg/mL, 21 days
[11] = Sodium bisulfite 10 mg/mL, at start
[12] = Sodium edetate 10 mg/mL, 7 days
[13] = Sodium edetate 10 mg/mL, 21 days
[14] = Sodium edetate 10 mg/mL, at start
[15] = Sodium pyrosulfite 10 mg/mL, 1 day
[16] = Sodium pyrosulfite 10 mg/mL, 7 days
[17] = Sodium pyrosulfite 10 mg/mL, 21 days
[18] = Sodium pyrosulfite 10 mg/mL, at start
[19] = α-Thioglycerol 10 mg/mL, 7 days
[20] = α-Thioglycerol 10 mg/mL, 21 days
[21] = α-Thioglycerol 10 mg/mL, at start

Structure (SMILES): Cc1cc(OC[C@@H](O)CN2CCN(c3ccc(Cc4ccc(F)cc4)cc3)CC2)c(C)c(C)c1N [compound represented by the formula (I), (2S)-1-(4-amino-2,3,5-trimethylphenoxy)-3-{4-[4-(4-fluorobenzyl)phenyl]-1-piperazinyl}-2-propanol]
- Order of likelihood of formation of insoluble aggregate with free base among various counter ions [1]: sulfate ion>sulfite (or bisulfite ion)>>phosphate ion (or hydrogen phosphate ion, dihydrogen phosphate ion)>acetate ion>chloride ion>methane sulfonate ion

Structure (SMILES): Cc1cc(OC[C@@H](O)CN2CCN(c3ccc(Cc4ccc(F)cc4)cc3)CC2)c(C)c(C)c1N [hydrochloride of compound of formula (I)]
- Appearance ([2]; Butyl hydroxy anisole (10.7 mg in 100 mL stock), at start): colorless and clear
- Appearance ([2]; Butyl hydroxy anisole, 1 day): colorless and clear
- Purity ([2]; Butyl hydroxy anisole, 1 day): 96.8%
- Residual degree ([2]; Butyl hydroxy anisole, 1 day): 99.2%
- pH ([2]; Butyl hydroxy anisole, 1 day): 2.8
- Appearance ([2]; Butyl hydroxy anisole, 7 days): colorless and clear
- Purity ([2]; Butyl hydroxy anisole, 7 days): 80.6%
- Residual degree ([2]; Butyl hydroxy anisole, 7 days): 80.3%
- pH ([2]; Butyl hydroxy anisole, 7 days): 2.8
- Appearance ([2]; Butyl hydroxy anisole, 21 days): Brown precipitates
- Purity ([2]; Butyl hydroxy anisole, 21 days): 53.5%
- Residual degree ([2]; Butyl hydroxy anisole, 21 days): 41.2%
- pH ([2]; Butyl hydroxy anisole, 21 days): 2.8
- Purity [2, 3]: 100%
- Residual degree [2, 3]: 100%
- pH [2, 3]: 2.8
- Appearance ([2]; Citric acid 10 mg/mL, 1 day): colorless and clear
- Purity ([2]; Citric acid 10 mg/mL, 1 day): 99.2%
- Residual degree ([2]; Citric acid 10 mg/mL, 1 day): 98.0%
- pH ([2]; Citric acid 10 mg/mL, 1 day): 2.2
- Appearance ([2]; Citric acid 10 mg/mL, 7 days): colorless and clear
- Purity ([2]; Citric acid 10 mg/mL, 7 days): 88.6%
- Residual degree ([2]; Citric acid 10 mg/mL, 7 days): 89.8%
- pH ([2]; Citric acid 10 mg/mL, 7 days): 2.2
- Appearance ([2]; Citric acid 10 mg/mL, 21 days): colorless and clear
- Purity ([2]; Citric acid 10 mg/mL, 21 days): 63.6%
- Residual degree ([2]; Citric acid 10 mg/mL, 21 days): 57.3%
- pH ([2]; Citric acid 10 mg/mL, 21 days): 2.2
- Appearance ([2]; Citric acid 10 mg/mL, at start): colorless and clear
- Purity ([2]; Citric acid 10 mg/mL, at start): 100%
- Residual degree ([2]; Citric acid 10 mg/mL, at start): 100%
- pH ([2]; Citric acid 10 mg/mL, at start): 2.1
- Appearance [2, 4]: colorless and clear
- Purity [2, 4]: 100%
- Residual degree [2, 4]: 97.9%
- pH [2, 4]: 1.7
- Appearance [2, 5]: colorless and clear
- Purity [2, 5]: 99.7%
- Residual degree [2, 5]: 100.6%
- pH [2, 5]: 1.7
- Appearance [2, 6]: colorless and clear
- Purity [2, 6]: 99.6%
- Residual degree [2, 6]: 94.0%
- pH [2, 6]: 1.7
- Appearance [2, 7]: colorless and clear
- Purity [2, 7]: 100%
- Residual degree [2, 7]: 100%
- pH [2, 7]: 1.7
- Appearance ([2]; No additive, 1 day): colorless and clear
- Purity ([2]; No additive, 1 day): 98.4%
- Residual degree ([2]; No additive, 1 day): 98.7%
- pH ([2]; No additive, 1 day): 2.8
- Appearance ([2]; No additive, 7 days): colorless and clear
- Purity ([2]; No additive, 7 days): 82.5%
- Residual degree ([2]; No additive, 7 days): 84.4%
- pH ([2]; No additive, 7 days): 3.0
- Appearance ([2]; No additive, 21 days): colorless and clear
- Purity ([2]; No additive, 21 days): 51.2%
- Residual degree ([2]; No additive, 21 days): 43.1%
- pH ([2]; No additive, 21 days): 2.9
- Appearance ([2]; No additive, at start): colorless and clear
- Purity ([2]; No additive, at start): 100%
- Residual degree ([2]; No additive, at start): 100%
- pH ([2]; No additive, at start): 2.8
- Appearance [2, 8]: colorless and clear
- Purity [2, 8]: 98.5%
- Residual degree [2, 8]: 99.9%
- pH [2, 8]: 3.2
- Appearance [2, 9]: colorless and clear
- Purity [2, 9]: 98.3%
- Residual degree [2, 9]: 97.3%
- pH [2, 9]: 2.8
- Appearance [2, 10]: colorless and clear
- Purity [2, 10]: 98.4%
- Residual degree [2, 10]: 91.2%
- pH [2, 10]: 2.8
- Appearance [2, 11]: colorless and clear
- Purity [2, 11]: 97.2%
- Residual degree [2, 11]: 100%
- pH [2, 11]: 3.5
- Appearance ([2]; Sodium edetate 10 mg/mL, 1 day): colorless and clear
- Purity ([2]; Sodium edetate 10 mg/mL, 1 day): 97.9%
- Residual degree ([2]; Sodium edetate 10 mg/mL, 1 day): 94.1%
- pH ([2]; Sodium edetate 10 mg/mL, 1 day): 3.8
- Appearance [2, 12]: colorless and clear
- Purity [2, 12]: 81.2%
- Residual degree [2, 12]: 68.5%
- pH [2, 12]: 4.1
- Appearance [2, 13]: colorless and clear
- Purity [2, 13]: 53.8%
- Residual degree [2, 13]: 31.9%
- pH [2, 13]: 4.2
- Appearance [2, 14]: colorless and clear
- Purity [2, 14]: 100%
- Residual degree [2, 14]: 100%
- pH [2, 14]: 4.0
- Appearance [2, 15]: colorless and clear
- Purity [2, 15]: 98.2%
- Residual degree [2, 15]: 102.4%
- pH [2, 15]: 3.1
- Appearance [2, 16]: colorless and clear
- Purity [2, 16]: 97.3%
- Residual degree [2, 16]: 97.2%
- pH [2, 16]: 2.9
- Appearance [2, 17]: colorless and clear
- Purity [2, 17]: 97.6%
- Residual degree [2, 17]: 89.8%
- pH [2, 17]: 2.7
- Appearance [2, 18]: colorless and clear
- Purity [2, 18]: 94.4%
- Residual degree [2, 18]: 100%
- pH [2, 18]: 3.6
- Appearance ([2]; α-Thioglycerol 10 mg/mL, 1 day): colorless and clear
- Purity ([2]; α-Thioglycerol 10 mg/mL, 1 day): 100%
- Residual degree ([2]; α-Thioglycerol 10 mg/mL, 1 day): 97.5%
- pH ([2]; α-Thioglycerol 10 mg/mL, 1 day): 2.8
- Appearance [2, 19]: colorless and clear
- Purity [2, 19]: 99.2%
- Residual degree [2, 19]: 97.1%
- pH [2, 19]: 2.8
- Appearance [2, 20]: colorless and clear
- Purity [2, 20]: 96.8%
- Residual degree [2, 20]: 89.0%
- pH [2, 20]: 2.8
- Appearance [2, 21]: colorless and clear
- Purity [2, 21]: 100%
- Residual degree [2, 21]: 100%
- pH [2, 21]: 2.7
